The values below are quoted from earlier work in patent US20020013261A1, “Methods and compositions for promoting angiogenesis using polyethylene glycol (PEG) polymers” (priority 2000, published 2002).

This data set relates to vascularization. To be noted: purified recombinant protein injected into ischemic skeletal muscle tissue, rabbit chronic limb ischemia.

“basic fibroblast growth factor (bFGF): purified recombinant angiogenic protein”: the vascularization entry is reported as “modest but significant vascularization”.
